Laboratory results published in BindingDB's records for doi:10.1016/j.ejmech.2019.111919 (University of Auckland, 2020).

What was measured:
[1] = Inhibition of Bacillus cereus PC-phospholipase C using phosphoryl-choline as substrate by molybdenum blue dye based assay
[2] = Inhibition of Bacillus cereus phospholipase C using L-alpha-phosphatidylcholine as substrate by Lineweaver-Burk plot analysis
[3] = molecular target: Phosphatidylcholine-specific phospholipase C (Bacillus cereus) (UniProt P09598); experiment: Inhibition of recombinant Bacillus cereus N-terminal His6-tagged full length PC-PLC 3C Protease cleavage site expressed in Escherichia coli BL21(DE3) cells using phosphatidylcholine as substrate by amplex red assay relative to control
[4] = molecular target: Phosphatidylcholine-specific phospholipase C (Bacillus cereus) (UniProt P09598); experiment: Binding affinity to Bacillus cereus N-terminal His6-tagged full length PC-PLC 3C Protease cleavage site expressed in Escherichia coli BL21(DE3) cells using 3,3-dimethylglutaratic acid as substrate by intrinsic fluorescence assay

Chain of Phosphatidylcholine-specific phospholipase C (Bacillus cereus) (P09598 whole entry, looked up): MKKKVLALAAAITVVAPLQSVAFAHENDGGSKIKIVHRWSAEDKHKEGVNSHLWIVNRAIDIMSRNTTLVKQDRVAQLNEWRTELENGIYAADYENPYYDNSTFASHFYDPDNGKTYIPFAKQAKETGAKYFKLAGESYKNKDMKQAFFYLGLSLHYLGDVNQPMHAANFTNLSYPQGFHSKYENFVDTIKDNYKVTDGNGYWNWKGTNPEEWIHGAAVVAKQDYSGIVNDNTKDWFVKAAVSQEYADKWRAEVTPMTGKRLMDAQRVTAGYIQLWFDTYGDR

Row | Compound | IC50 [3] | further results
1 | O=C1N(O)CCCCN1O | – | Ki [1]: 71 µM
2 | CCCCCOC(=O)CC(CSP(=O)([O-])OCC[N+](C)(C)C)C(=O)OCCCCC (stereo not drawn) | – | Ki [2]: 7 µM
3 | O=C(O)c1cc(NCc2ccccc2Cl)ccc1N1CCOCC1 | 3.6 µM | Kd [4]: 325 µM
4 | O=C(O)c1cc(NCc2cccc(Cl)c2)ccc1N1CCOCC1 | 4.9 µM | –
5 | O=C(O)c1cc(NCc2cccc(Br)c2)ccc1N1CCOCC1 | 3.69 µM | –
6 | O=C(O)C1Cc2c([nH]c3ccccc23)C(c2ccc(O)c(O)c2)N1 (stereo not drawn) | 3.1 µM | –
7 | CN(C)c1ccc(C2NC(C(=O)O)Cc3c2[nH]c2ccccc32)cc1 (stereo not drawn) | 10.9 µM | –
